From BindingDB's records for doi:10.1016/j.bmc.2016.11.016 (University of Kaiserslautern, 2017)

What follows are compounds tested against T1, Signal transducer and activator of transcription 1-alpha/beta (Homo sapiens, UniProt P42224) (assay: Inhibition of Stat1 (unknown origin) expressed in LPS/INF-gamma-stimulated human MONO-MAC-6 cells assessed as reduction in GAS dependent transcription activity measured after 4 hrs by luciferase reporter gene assay).
T1 sequence (P42224 whole entry): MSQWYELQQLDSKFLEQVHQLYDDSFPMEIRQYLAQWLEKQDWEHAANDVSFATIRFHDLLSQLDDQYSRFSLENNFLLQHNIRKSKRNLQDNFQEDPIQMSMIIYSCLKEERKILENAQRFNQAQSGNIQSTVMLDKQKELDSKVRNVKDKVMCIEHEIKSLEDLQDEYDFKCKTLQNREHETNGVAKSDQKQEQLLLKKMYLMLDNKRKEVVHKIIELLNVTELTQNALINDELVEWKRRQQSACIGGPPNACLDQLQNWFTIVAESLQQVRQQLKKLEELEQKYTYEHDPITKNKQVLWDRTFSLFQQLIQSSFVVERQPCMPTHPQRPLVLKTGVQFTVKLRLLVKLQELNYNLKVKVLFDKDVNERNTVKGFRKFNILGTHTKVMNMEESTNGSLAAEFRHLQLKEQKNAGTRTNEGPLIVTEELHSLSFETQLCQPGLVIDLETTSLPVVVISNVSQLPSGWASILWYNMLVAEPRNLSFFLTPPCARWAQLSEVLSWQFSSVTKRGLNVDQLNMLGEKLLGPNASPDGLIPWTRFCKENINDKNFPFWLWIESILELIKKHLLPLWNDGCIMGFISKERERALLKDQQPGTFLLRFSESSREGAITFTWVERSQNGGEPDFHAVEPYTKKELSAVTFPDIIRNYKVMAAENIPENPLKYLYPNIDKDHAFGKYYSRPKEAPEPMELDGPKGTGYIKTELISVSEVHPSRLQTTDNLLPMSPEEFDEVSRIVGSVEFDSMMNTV

SMILES | IC50 [nM]
C=C[C@H]1CC[C@]23C[C@@H]4[C@H](C)[C@@H](O)[C@H]5O[C@@]45[C@@]2(C)CC(=O)[C@]13C | > 50000
CC(C)[C@H]1CC[C@]23C[C@@H]4[C@H](C)C(=O)[C@H]5O[C@]54[C@@]2(C)CC(=O)[C@]13C | 2000
CC(C)[C@H]1CC[C@]23C[C@@H]4[C@H](C)C(=O)[C@H]5O[C@]54[C@@]2(C)[C@@H](O)C(=O)[C@]13C | 7000
C=C[C@H]1CC[C@]23C[C@@H]4[C@H](C)C(=O)[C@H]5O[C@]54[C@@]2(C)C[C@H](O)[C@]13C | 2000
